Measured values from US8293705B2, “HCV protease inhibitors and uses thereof” (Avila Therapeutics, Inc., priority 2007, dated 2012).

Tests used:
[1] = target: T1, HCV NS3/4A 1b protease D168A (Hepatitis C virus genotype 1b, UniProt Q9WMX2, D1194A); assay: HCV protease FRET assay (IC50_APP), Example 16; type: biochemical
T1 construct: 10× stocks of NS3/4A protease enzyme from Bioenza (Mountain View, Calif.); purchased Bioenza (Mountain View, Calif.)

[2] = target: T2, HCV NS3/4A 1b protease R155K (Hepatitis C virus genotype 1b, UniProt Q9WMX2, R1181K); assay: HCV protease FRET assay (IC50_APP), Example 16; type: biochemical; details: reaction started immediately after enzyme addition, read-out: Inhibition (apparent IC50, IC50_APP), HCV R155K
T2 construct: 10× stocks of NS3/4A protease enzyme from Bioenza (Mountain View, Calif.); purchased Bioenza (Mountain View, Calif.)

[3] = target: T3, HCV NS3/4A 1b protease wild type (Hepatitis C virus genotype 1b, UniProt Q9WMX2); assay: HCV protease FRET assay (IC50_APP), Example 16; type: biochemical
T3 construct: 10× stocks of NS3/4A protease enzyme from Bioenza (Mountain View, Calif.); purchased Bioenza (Mountain View, Calif.)

[4] = system: HCV RNA replicon in cell line ET (luc-ubi-neo/ET), human Huh7 hepatoma; assay: Replicon luciferase assay, Example 26; type: cell-based; details: Hepatitis C virus, Huh-7, assay of Example 26, 72 hr
Protocol: The compounds were assayed to evaluate the antiviral activity and cytotoxicity of compounds using replicon-derived luciferase activity. This assay used the cell line ET (luc-ubi-neo/ET), which is a human Huh7 hepatoma cell line that contains an HCV RNA replicon with a stable luciferase (Luc) reporter and cell culture-adaptive mutations. The ET cell line was grown in a 5% CO2 incubator at 37° C. in Dulbecco's modified essential media (DMEM) supplemented with 2 mM L-glutamine, nonessential amino acids, 100 U of penicillin/ml, 100 μg of streptomycin/mL, and 10% fetal bovine serum. G418 (Geneticin; Invitrogen) was added at a final concentration of 400 ug//mL.
All cell culture reagents were obtained from Invitrogen (Carlsbad). Cells were trypsinized (1% trypsin:EDTA) and plated out at 5×10^3 cells/well in white 96-well assay plates (Costar) dedicated to cell number (cytotoxicity) or antiviral activity assessments. Test compounds were added at six 3-fold concentrations each and the assay was run in DMEM, 5% FBS, 1% pen-strep, 1% glutamine, 1% non essential amino acid. Human interferon alpha-2b (PBL Biolabs, New Brunswick, N.J.) was included in each run as a positive control compound. Cells were processed 72 hr post test compound addition when the cells were still subconfluent. Antiviral activity was measured by analyzing replicon-derived luciferase activity using the Steady-Glo Luciferase Assay System (Promega, Madison, Wis.) according to manufacturer's instruction. The number of cells in each well was determined by Cell Titer Blue Assay (Promega). Compound profile was derived by calculating applicable EC50 (effective concentration inhibiting virus replication by 50%), EC90 (effective concentration inhibiting virus replication by 90%), IC50 (concentration decreasing cell viability by 50%) and SI50 (selective index: […]) values.

[5] = target: T4, NS3 protease self-cleavage in Huh-7-Luc-Neo-ET replicon cells (Hepatitis C virus genotype 1b, UniProt Q9WMX2, E1202G/T1280I); assay: Inhibition of protease self cleavage in replicon cells (washout); type: cell-based; details: 16 hours continuous exposure
T4 construct: blotted with polyclonal anti NS3 antibody (Bioenza, Calif.)
Protocol: Huh-7-Luc-Neo-ET cells were plated in Replicon Assay Medium (RPMI supplemented with 5% FBS, 1× non-essential amino acids and pen/strep) at a density of 1×10^5 cells/well in 12 well plates. Eight hours later the media was removed and replaced with 1 ml media containing test compound (5 wells per compound) and 0.02% DMSO and the cells were returned to the incubator overnight. Sixteen hours later 1 well from each compound and 1 untreated well were washed with PBS, then lysed and scraped into 30 ul of Cell Extraction Buffer (Biosource, Camarillo, Calif.) plus Complete Protease Inhibitor (Roche, Indianapolis, Ind.). The remaining wells were rinsed 2× with PBS then fed with Replicon Media and returned to the incubator. […]
Cell lysates were separated by SDS-Page (4-20%) and transferred to Immobilon-P PVDF membrane (Millipore Corporation, MA) and blotted with polyclonal anti NS3 antibody (Bioenza, Calif.). Blots were scanned on an Odyssey infrared scanner from Licor and the FL band and cleavage products were quantified separately using the Licor software provided with the scanner. The cleavage product was calculated as a percentage of the total NS3 in each sample and then normalized to the DMSO control so that the DMSO control reflects 100% activity.

## CC(C)(C)OC(=O)N[C@H]1CN(C(=O)CCl)CCC/C=C\[C@@H]2C[C@@]2(C(=O)NS(=O)(=O)C2CC2)NC(=O)[C@@H]2CC(OC(=O)N3Cc4cccc(F)c4C3)CN2C1=O (stereo partly drawn) [Compound I-47]
[1]
  IC50: 10 to 100 nM
[2]
  IC50: 10 to 100 nM
[3]
  IC50: < 10 nM
[4]; read-out: Inhibition, Replicon, EC50 value
  EC50: 10 to 100 nM
[4]; read-out: Inhibition, Replicon, EC90 value
  EC90: 100 to 1000 nM
[5]
  NS3 internal self-cleavage products after treatment of replicon cells: inhibited
